In US10596152B2, “Selenium containing KGA/GDH dual inhibitors and the applications thereof” (HANGZHOU GAMMA BIOTECH CO., LTD., priority 2015, dated 2020):
“Also recorded” adds a separate entry of the source. Where two headings read alike, the source gives them in different places.

Legend:
L2 (Normal cell) = assay: Growth inhibition of L2 normal cells; type: cell-based
Description: (§1) Tumor cells (1000 cells per well) which were first treated with the corresponding compound for 3 days, and then EZMTT detection reagents were added measure the cell growth.

PC12 cells = assay: Protection of PC12 nerve cells under OGD (hypoxia-ischemia); type: cell-based; conditions: for Protection of PC12 cells under OGD: OGD hypoxia-ischemia condition
Source text: Then observed the growth of cellular neurite growth or neural synapse.

T24 (Bladder cancer) = assay: Inhibition of growth of tumor cells, T24 bladder cancer; type: cell-based
Description: as §1

TrxR = conditions: reported; cited from earlier work
PC12 = assay: Inhibition of growth of tumor cells, PC12; type: cell-based; conditions: Rattus norvegicus, PC-12, 72 h, read-out: IC50, PC12
Description: as §1

Caki = assay: Inhibition of growth of tumor cells, Caki; type: cell-based; conditions: 72 h, read-out: IC50, Caki
Description: as §1

glutaminase = target: T1, glutaminase (Homo sapiens, UniProt O94925); conditions: reported; read-out: Glutaminase inhibitor IC50; cited from earlier work
T1 sequence (O94925 55-669): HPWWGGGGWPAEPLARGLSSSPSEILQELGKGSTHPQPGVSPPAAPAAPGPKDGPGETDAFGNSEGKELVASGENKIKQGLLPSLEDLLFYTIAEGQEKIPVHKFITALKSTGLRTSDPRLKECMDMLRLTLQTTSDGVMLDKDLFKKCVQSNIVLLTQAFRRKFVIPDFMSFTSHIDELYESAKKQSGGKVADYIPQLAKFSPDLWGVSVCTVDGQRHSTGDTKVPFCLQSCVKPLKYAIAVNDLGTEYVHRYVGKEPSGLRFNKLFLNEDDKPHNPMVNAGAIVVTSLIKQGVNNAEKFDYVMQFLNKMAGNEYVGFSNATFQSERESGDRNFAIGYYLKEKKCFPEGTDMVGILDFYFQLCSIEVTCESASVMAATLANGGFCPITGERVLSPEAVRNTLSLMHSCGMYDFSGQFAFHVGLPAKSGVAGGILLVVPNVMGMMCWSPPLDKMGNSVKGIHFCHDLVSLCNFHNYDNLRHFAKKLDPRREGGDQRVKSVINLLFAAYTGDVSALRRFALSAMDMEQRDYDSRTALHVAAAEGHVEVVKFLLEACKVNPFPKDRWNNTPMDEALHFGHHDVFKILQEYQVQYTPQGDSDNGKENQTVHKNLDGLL

A549 = assay: Inhibition of growth of tumor cells, A549; type: cell-based; conditions: Homo sapiens, read-out: IC50, A549
Description: as §1

KGA [1] = target: T2, KGA (Homo sapiens, UniProt O94925); assay: Binding to immobilized KGA by molecular interaction apparatus (ForteBio); conditions: KGA immobilized on ForteBio chip
T2 sequence (O94925 55-669): T1 sequence (O94925 55-669)
Source text: We suspected that ebselen may not inhibit glutaminase. […] Therefore, based on the crystal structure of the allosteric site of glutaminase, we synthesized a series of new symmetric and asymmetric ebselen derivatives with the aim to make an ebselen derived KGA inhibitor. In the derivatives, the benzene ring at the 2-position of the original ebselen molecule was replaced by a straight-chain or branched alkyl substituent containing at least one carbon atom, or a long chain containing thioether, or a smaller cycloalkyl group, and the newly obtained derivatives are effective in binding to the allosteric site of glutaminase. […] Moreover, these inhibitors that bind the allosteric site of glutaminase had good selectivity and higher potency for inhibition of tumor cell growth (<100 nM), and no damage to normal cells (10 μM). These inhibitors also had significant activity in an immunodeficient mouse model with no toxicity. These inhibitors had good inhibitory activity for various types of glutamine-dependent cancer cells (80-90%), especially urinary system tumors. The binding diagram of GAC tetramers and BPTES is shown in FIG. 1, wherein “mark 1” is the active site of substrate binding; and “mark 2” is an allosteric site for BPTES binding.
Our Papers published are Anal. Chem. 2017, 89: 1689, ACS Chemical Biology, 2017, 12:3003

normal cells [2] = assay: Toxicity to normal cells
PC3 = assay: Inhibition of growth of tumor cells, PC3; type: cell-based; conditions: Homo sapiens, PC-3, 72 h, read-out: IC50, PC3
Description: as §1

KGA [3] = target: T2, KGA; assay: Inhibition of KGA (glutaminase); type: biochemical
[4] = tested on: glutamine dependent cancer cell; conditions: reported; read-out: Inhibiting glutamine dependent cancer cell growth IC50; cited from earlier work
JC82 = assay: Inhibition of growth of tumor cells, JC82; type: cell-based; conditions: 72 h, read-out: IC50, JC82
Description: as §1

A549 tumor = assay: Subcutaneous A549 tumor model in nude mice; type: in vivo; conditions: immune deficient mice, 1 mg/kg subcutaneously near tumor daily, 7 days, FIG. 5
Description: A549 tumor cells (1,000,000) were inoculated in nude mice, and the tumor size was 10 mm×10 mm in 24th to 27th day. Then compound hexane-(3,3′-dimethyl) thioether selen in PBS solution (200 μl) was injected subcutaneously every day near the tumor with the dosage of 1 mg/kg.

T24 tumor = assay: Subcutaneous T24 tumor model in nude mice; type: in vivo; conditions: immune deficient mice, 1 mg/kg subcutaneously near tumor daily, 7 days, FIG. 6
Description: T24 tumor cells (1,000,000) were inoculated in nude mice, and the tumor size was 10 mm×10 mm in 24th to 27th day. Then compound hexane-(3,3′-dimethyl) thioether selen in PBS solution (200 μl) was injected subcutaneously every day near the tumor with the dosage of 1 mg/kg.

normal cells [5] = tested on: normal cells
[6] = bladder cancer cell line table, read-out: L2 (Normal cell) IC50
[7] = bladder cancer cell line table, read-out: T24 (Bladder cancer) IC50
[8] = 72 h, read-out: IC50, L2 (Normal)
[9] = Homo sapiens, T-24, 72 h, read-out: IC50, T24

In the case of “1,6- tert butyl carbonate hexamethylendiamineselen”, the IC50 (L2 (Normal cell); [6]) is reported as over 10000 nM, the “Protection of PC12 cells under OGD” value (PC12 cells) is reported as under 100 nM and the IC50 (T24 (Bladder cancer); [7]) is reported as 10000 nM.

In the case of `O=c1c2ccccc2[se]n1-c1ccccc1` [Ebselen, 2-phenylbenzoisoselenazol-3-one, reference compound], the “Inhibition of TrxR” value (TrxR) is listed as “strong inhibitors of TrxR”, the IC50 (PC12; PC12 cells, 3 days treatment) is listed as over 10000 nM and the IC50 (Caki; Caki cells, 3 days treatment) is listed as over 10000 nM. The IC50 (glutaminase) was 9 nM, the IC50 (A549; 72 h, A549 cells, 3 days treatment) was over 10000 nM and the IC50 (L2 (Normal cell); 72 h, L2 normal cells, 3 days treatment, read-out: IC50, L2 (Normal)) was over 10000 nM. The IC50 (L2 (Normal cell); [6]) was over 10000 nM, the “Binding to KGA / glutaminase” value (KGA [1]) was “not bound to the KGA; also recorded: cannot directly combine toglutaminase” and the “Toxicity to normal cells” value (normal cells [2]) was “toxic to the normal cells”. The IC50 (PC3; PC3 cells, 3 days treatment) was over 10000 nM, the “Protection of PC12 cells under OGD” value (PC12 cells) was 1000 nM and the IC50 (T24 (Bladder cancer); Homo sapiens, T-24, 72 h, T24 cells, 3 days treatment, comparison with parent nucleus, read-out: IC50, T24) was over 10000 nM. The IC50 (T24 (Bladder cancer); [7]) was over 10000 nM, the “Inhibition of KGA” value (KGA [3]) was “do not inhibit KGA” and the IC50 [4] was 20000 nM. The IC50 (JC82; JC82 cells, 3 days treatment) was over 10000 nM.

With `O=c1c2ccccc2[se]n1CCCCCCn1[se]c2c(F)cccc2c1=O` [Hexane - (2'-fluoro) selen, Hexane-(2′-fluoro) selen] the IC50 (L2 (Normal cell); read-out: L2 (Normal cell) IC50) was over 10000 nM, the “Protection of PC12 cells under OGD” value (PC12 cells) was under 100 nM and the IC50 (T24 (Bladder cancer); read-out: T24 (Bladder cancer) IC50) was 200 nM.

Compound `O=c1c2c(F)cccc2[se]n1CCCCCCn1[se]c2cccc(F)c2c1=O` [Hexane-(2,2'-difluoro) selen, Hexane-(2,2′-difluoro) selen] has an IC50 (PC12) of 5000 nM, an IC50 (Caki) of 1000 nM and an IC50 (A549; A549, 72 h) of 500 nM. It also gave an IC50 (L2 (Normal cell); [8]) of over 10000 nM, an IC50 (PC3) of 2000 nM and an IC50 (T24 (Bladder cancer); [9]) of 10 nM. The IC50 (JC82) was 2000 nM.

For `Cc1cccc2[se]n(CCCCCCn3[se]c4cccc(C)c4c3=O)c(=O)c12` [Hexane-(3,3'-dimethyl) selen, Hexane-(3,3′-dimethyl) selen], the IC50 (PC12) was 5000 nM, the IC50 (Caki) was 1000 nM and the IC50 (A549; A549, 72 h) was 500 nM. The IC50 (L2 (Normal cell); [8]) was over 10000 nM, the “Binding to KGA / glutaminase” value (KGA [1]) was “distinct levels of combination with KGA enzyme” and the IC50 (PC3) was 2000 nM. For the same compound, the IC50 (T24 (Bladder cancer); [9]) was 200 nM and the IC50 (JC82) was 5000 nM.

With `O=c1c2ccccc2[se]n1CCCSCCCn1[se]c2ccccc2c1=O` [Thioether selen] the IC50 (PC12) was 5000 nM, the IC50 (Caki) was 1000 nM and the IC50 (A549; A549, 72 h) was 500 nM. For the same compound, the IC50 (L2 (Normal cell); [8]) was over 10000 nM, the “Inhibition of growth of A549 tumor” value (A549 tumor) was “inhibition of the growth of the A549 tumor” and the IC50 (PC3) was 2000 nM. For the same compound, the “Protection of PC12 neuronal cells under OGD condition” value (PC12 cells; words, FIG. 7) was “protection of PC12 neuronal cells”, the IC50 (T24 (Bladder cancer); [9]) was 500 nM and the IC50 (JC82) was 5000 nM. For the same compound, the “Inhibition of growth of T24 tumor” value (T24 tumor) was “inhibition of the growth of the T24 tumor cells”.

In the case of `O=c1c2ccccc2[se]n1CCn1[se]c2ccccc2c1=O` [ethylselen], the “Inhibition of TrxR” value (TrxR) is given as “strong inhibitors of TrxR”, the “Toxicity to normal cells” value (normal cells [5]) is given as “toxic to the normal cells” and the “Inhibition of KGA” value (KGA [3]) is given as “do not inhibit KGA”.
